Assay [1] has as its system HFL-1 cells. The assay can be described thus: IL-8 production assay (S1P induced IL-8). Format: cell-based. The note with it: Homo sapiens, HFL1; S1P (1 μM) induced IL-8 in HFL-1 cells, starvation medium without HSA; read-out: IL8 EC50. The gist of the method: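 HFL-1 fibroblasts in low-serum medium were pretreated 1 h with a 10-point 1/3 series of compound starting at 30 μM (0.3% DMSO).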

Assay [2] concerns the target T1, human GPCR sphingosine 1-phosphate receptor 2 (Homo sapiens, UniProt O95136).
T1 construct: host or cells: CHO
The assay can be described thus: S1PR2 antagonist Ca2+ flux assay. Type of assay: cell-based. The note with it: antagonist mode, CHO-S1PR2 cells, S1P at EC80, Ca2+ fluorescence; read-out: S1P2 EC50 (nM), S1P2 antagonist EC50. The gist of the method: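 Antagonist mode: 15 min after compound addition, S1P (EC80) stimulates Fluo8-loaded, 1 h-starved CHO-S1PR2 cells, Ca2+ read over 3 min; a prior 3-min read checks compound agonism. EC50 from peak/baseline fluorescence ratio, normalised versus vehicle and S1P EC50 (antagonist) or EC100 (agonist).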

Assay [3] relates to HFL-1 cells. In words: IL8 assay in the presence of Human Serum Albumin. The note with it: HFL1, read-out: HSA IL8 EC50.
Assay [4] concerns the target T2, human GPCR sphingosine 1-phosphate receptor 1 (Homo sapiens, UniProt P21453).
T2 construct: host or cells: CHO
The assay can be described thus: S1PR1 selectivity Ca2+ flux assay (antagonist readout). Type of assay: cell-based. The note with it: antagonist readout, CHO cells overexpressing human S1PR1 and Gq, S1P at EC80 (6 nM); read-out: S1P1 EC50 (nM), S1P1 antagonist EC50. How it is done: 50 μL of Chinese hamster ovary (CHO) cells stably overexpressing human S1PR1 or S1PR5 are seeded in 384 well sterile microplates (7,500 cells/well or 10,000 cells/well respectively) and are incubated overnight at 37° C. under 5% CO2. Cells are subsequently washed twice with 25 μL/well of starvation medium (F-12 Ham's medium containing 0.1% fatty acid free bovine serum albumin (FAF BSA)). After one h starvation at 37° C., 5% CO2, cells are loaded with 25 μL of Fluo 8 dye diluted in Hank's balanced salt solution (HBSS) with 20 mM Hepes complemented with 5 mM of probenecid following the recommendations of the manufacturer (one h at 37° C., 5% CO2). Dilution series of compounds are prepared in HBSS buffer with 20 mM Hepes and 0.1% BSA (FAF). 10 μL of diluted compound is added to the cells using the FDSS/pCELL and intracellular calcium changes are measured immediately by recording fluorescence during 3 min (agonist readout). The ratio of maximal signal over background before compound injection is used to determine compound response.
After an incubation of 15 min at 37° C., following the agonist readout, the plates are transferred to the FDSS/pCELL reader. […] The ratio of maximal signal over background before S1P injection was used to determine the inhibitory effect ofthe compound.
Raw data obtained in each experiment (ratio of maximal signal over background for calcium mobilization assays) were normalized in percentage of activation (agonist mode) or inhibition (antagonist mode) using positive and negative experiment controls. Each individual plate quality was assessed by evaluation of Z′ factor calculated with raw data using the following equation
Y=bottom+(top−bottom)/(1+(10^(Log IC50−X)*Hillslope)) where X is the logarithm of the concentration of the compound

The target in another assay is T3, S1PR2 (Homo sapiens, UniProt O95136).
T3 construct: expressed in transfected cells
The assay can be described thus: S1PR2 binding assay (competition with radioactively labeled S1P, SpA). The note with it: membranes from stable cell line over expressing S1PR2, SpA beads; read-out: S1P2 EC50 (nM), S1PR2 binding EC50. The gist of the method: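 Scintillation proximity read-out after 2 h room-temperature incubation of compound, [3H]S1P and S1PR2-overexpressing cell membranes on WGA-coated beads. Buffer: 20 mM Tris pH 7.5, 100 mM NaCl, 10 mM MgCl2, 1 mM Na3VO4, 0.4% fatty-acid-free BSA; plates counted immediately after centrifugation.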

Each structure is given as a SMILES string.

T3 sequence (O95136 whole entry): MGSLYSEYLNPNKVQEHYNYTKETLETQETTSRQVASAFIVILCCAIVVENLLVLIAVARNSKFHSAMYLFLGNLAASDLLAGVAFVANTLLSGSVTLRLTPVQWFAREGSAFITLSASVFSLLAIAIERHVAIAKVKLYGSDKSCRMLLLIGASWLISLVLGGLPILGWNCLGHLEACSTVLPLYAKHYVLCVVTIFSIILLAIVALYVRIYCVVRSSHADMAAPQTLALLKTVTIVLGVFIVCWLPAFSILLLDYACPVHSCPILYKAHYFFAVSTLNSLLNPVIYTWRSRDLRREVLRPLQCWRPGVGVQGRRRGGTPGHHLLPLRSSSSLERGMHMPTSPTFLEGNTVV
T1 sequence (O95136 whole entry): as above
T2 sequence (P21453 whole entry): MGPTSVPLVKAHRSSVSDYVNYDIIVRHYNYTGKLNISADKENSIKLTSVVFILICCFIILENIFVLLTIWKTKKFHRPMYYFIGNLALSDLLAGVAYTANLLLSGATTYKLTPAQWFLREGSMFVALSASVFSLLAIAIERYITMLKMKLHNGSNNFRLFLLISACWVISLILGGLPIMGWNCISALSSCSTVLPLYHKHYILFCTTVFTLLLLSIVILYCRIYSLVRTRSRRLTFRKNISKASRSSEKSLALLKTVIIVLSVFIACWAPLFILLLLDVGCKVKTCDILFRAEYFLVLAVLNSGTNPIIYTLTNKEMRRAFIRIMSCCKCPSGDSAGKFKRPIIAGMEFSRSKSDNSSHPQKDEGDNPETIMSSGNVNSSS

What is called EC50 is the midpoint of the concentration-response curve. For `O=C(O)C1CCC1n1nc(Cn2cc3cc(OCC4CC4)c(Cl)cc3n2)c2ccccc2c1=O` (centres unmarked) [Compound 91, 2-[4-[[6-chloro-5-(cyclopropylmethoxy)indazol-2-yl]methyl]-1-oxo-phthalazin-2-yl]cyclobutanecarboxylic acid], the EC50 in the assay on HFL-1 cells [1] is 60.7 nM; in assay [2], 22.2 nM; with HFL-1 cells [3], 5710 nM; in assay [4], not below 19800 nM.

`CN1CCC(n2nc(Cc3nc4cc(OCC(F)F)c(C#N)cc4[nH]3)c3ccccc3c2=O)C1` (centres unmarked) [Compound 72, 6-(2,2-difluoroethoxy)-2-[[3-(1-methylpyrrolidin-3-yl)-4-oxo-phthalazin-1-yl]methyl]-3H-benzimidazole-5-carbonitrile]: the EC50 is 5180 nM with HFL-1 cells [1], 1950 nM in the assay with HFL-1 cells [3], 3090 nM on S1PR2 and not below 19800 nM in assay [4].

On to `CCOc1cc2cn(Cc3nn(CC(=O)O)c(=O)c4ccccc34)nc2cc1Br` [Compound 137, 2-[4-[(6-bromo-5-ethoxy-indazol-2-yl)methyl]-1-oxo-phthalazin-2-yl]acetic acid], for which the EC50 in the assay on HFL-1 cells [1] was 105 nM; in assay [2], 21 nM; with HFL-1 cells [3] it was 3180 nM; on S1PR2, 59.4 nM; in assay [4], not below 19900 nM.

On to `O=C(O)Cn1nc(Cc2nc3cc(OC(F)(F)F)c(Cl)cc3[nH]2)c2ccccc2c1=O` [Compound 112, 2-[4-[[6-chloro-5-(trifluoromethoxy)-1H-benzimidazol-2-yl]methyl]-1-oxo-phthalazin-2-yl]acetic acid], for which the EC50 with HFL-1 cells [1] was 541 nM; in the assay on HFL-1 cells [3] it was 1640 nM; in assay [4], not below 19900 nM.

On to `O=C(Cn1nc(Cc2nc3cc(OC(F)(F)F)c(Cl)cc3[nH]2)c2ccccc2c1=O)N1CCOCC1` [Compound 142, 4-[[6-chloro-5-(trifluoromethoxy)-1H-benzimidazol-2-yl]methyl]-2-(2-morpholino-2-oxo-ethyl)phthalazin-1-one], for which the EC50 was 191 nM in the assay on HFL-1 cells [1]; 30.1 nM in assay [2]; 952 nM with HFL-1 cells [3]; 103 nM at S1PR2; not below 19900 nM in assay [4].

In the case of `O=C(Cn1nc(Cc2nc3cc(OC(F)(F)F)c(Cl)cc3[nH]2)c2ccccc2c1=O)N[C@H]1CCC[C@H]1O` [Compound 140, 2-[4-[[6-chloro-5-(trifluoromethoxy)-1H-benzimidazol-2-yl]methyl]-1-oxo-phthalazin-2-yl]-N-[(1S,2R)-2-hydroxycyclopentyl]acetamide], the EC50 in the assay with HFL-1 cells [1] was 114 nM; in assay [2], 13 nM; in the assay with HFL-1 cells [3], 1110 nM; at S1PR2, 29.8 nM; in assay [4], not below 19900 nM.

Consider `O=C(Cn1nc(Cc2nc3cc(OC(F)(F)F)c(Cl)cc3[nH]2)c2ccccc2c1=O)NC1CCS(=O)(=O)CC1` [Compound 141, 2-[4-[[6-chloro-5-(trifluoromethoxy)-1H-benzimidazol-2-yl]methyl]-1-oxo-phthalazin-2-yl]-N-(1,1-dioxothian-4-yl)acetamide], for which the half-maximal effective concentration (EC50) in the assay on HFL-1 cells [1] is 130 nM; in assay [2] it was 21.1 nM; at S1PR2, 70.6 nM; in assay [4], not below 19900 nM.

Take `COc1cc2nc(Cc3nn(CC(=O)O)c(=O)c4ccccc34)[nH]c2cc1Cl` [Compound 136, 2-[4-[(6-chloro-5-methoxy-1H-benzimidazol-2-yl)methyl]-1-oxo-phthalazin-2-yl]acetic acid]: the EC50 in the assay with HFL-1 cells [1] was 26 nM; in assay [4] it was not below 19900 nM.

As to `O=C(O)C1(Cn2nc(Cc3nc4cc(Cl)c(OC(F)(F)F)cc4[nH]3)c3ccccc3c2=O)CC1` [Compound 47, 1-[[4-[[5-chloro-6-(trifluoromethoxy)-1H-benzimidazol-2-yl]methyl]-1-oxo-phthalazin-2-yl]methyl]cyclopropanecarboxylic acid], the half-maximal effective concentration (EC50) came to 1360 nM with HFL-1 cells [1], 2240 nM in assay [2], 10000 nM with HFL-1 cells [3] and 4520 nM on S1PR2.

As for `N#Cc1cc2nn(Cc3nn(CC(=O)N4CCOCC4)c(=O)c4ccccc34)cc2cc1OCC(F)F` [Compound 205, 5-(2,2-difluoroethoxy)-2-[[3-(2-morpholino-2-oxo-ethyl)-4-oxo-phthalazin-1-yl]methyl]indazole-6-carbonitrile], the EC50 was determined as 2640 nM in the assay on HFL-1 cells [1], 13200 nM in assay [2], 9070 nM in the assay on HFL-1 cells [3] and 7680 nM at S1PR2.

Consider `CN(C)[C@H]1CCN(C(=O)Cn2nc(Cn3cc4cc(OCC(F)F)c(C#N)cc4n3)c3ccccc3c2=O)C1` [Compound 207, 5-(2,2-difluoroethoxy)-2-[[3-[2-[(3S)-3-(dimethylamino)pyrrolidin-1-yl]-2-oxo-ethyl]-4-oxo-phthalazin-1-yl]methyl]indazole-6-carbonitrile], for which the EC50 with HFL-1 cells [1] is 29900 nM; in assay [2] it was not below 19800 nM; in the assay with HFL-1 cells [3], 3030 nM; on S1PR2, 21900 nM.

For the compound `COc1ccc2c(=O)n(CC(=O)N3CCOCC3)nc(Cc3nc4cc(Cl)c(OCC(F)F)cc4[nH]3)c2c1` [Compound 30, 4-[[5-chloro-6-(2,2-difluoroethoxy)-1H-benzimidazol-2-yl]methyl]-6-methoxy-2-(2-morpholino-2-oxo-ethyl)phthalazin-1-one], the EC50 in the assay with HFL-1 cells [1] stood at 13.7 nM; in assay [2], 9.47 nM; in the assay with HFL-1 cells [3], 74.5 nM; on S1PR2, 93.3 nM.

Turning to `CN(CC1CC1)C(=O)Cn1nc(Cc2nc3cc(C#N)c(OCC(F)F)cc3[nH]2)c2ccccc2c1=O` [Compound 196, 2-[4-[[5-cyano-6-(2,2-difluoroethoxy)-1H-benzimidazol-2-yl]methyl]-1-oxo-phthalazin-2-yl]-N-(cyclopropylmethyl)-N-methyl-acetamide], the EC50 with HFL-1 cells [1] is 27.2 nM; in assay [2] it was 15.7 nM; with HFL-1 cells [3], 445 nM; at S1PR2, 83.1 nM.

Consider `N#Cc1cc2[nH]c(Cc3nn(CC(=O)N4CCOCC4)c(=O)c4ccccc34)nc2cc1OCC1CC1` [Compound 158, 6-(cyclopropylmethoxy)-2-[[3-(2-morpholino-2-oxo-ethyl)-4-oxo-phthalazin-1-yl]methyl]-3H-benzimidazole-5-carbonitrile], for which the EC50 with HFL-1 cells [1] stood at 1.5 nM; in assay [2] it was 3.98 nM; in the assay on HFL-1 cells [3] it was 11 nM; at S1PR2, 18.6 nM.

In the case of `N#Cc1cc2nc(Cc3nn(CC(=O)N4CCC(O)CC4)c(=O)c4ccccc34)[nH]c2cc1OCC(F)F` [Compound 193, 6-(2,2-difluoroethoxy)-2-[[3-[2-(4-hydroxy-1-piperidyl)-2-oxo-ethyl]-4-oxo-phthalazin-1-yl]methyl]-1H-benzimidazole-5-carbonitrile], the half-maximal effective concentration (EC50) came out at 49.7 nM with HFL-1 cells [1], 36.5 nM in assay [2], 183 nM in the assay with HFL-1 cells [3] and 346 nM on S1PR2.

Regarding `O=c1c2ccccc2c(Cc2nc3cc(Cl)c(OC(F)(F)F)cc3[nH]2)nn1CC1CC1` [Compound 27, 4-[[6-chloro-5-(trifluoromethoxy)-1H-benzimidazol-2-yl]methyl]-2-(cyclopropylmethyl)phthalazin-1-one], the EC50 in the assay with HFL-1 cells [1] was determined as 1110 nM; in assay [2], 868 nM; in the assay on HFL-1 cells [3], 10000 nM; on S1PR2, 3900 nM.

For the compound `CS(=O)(=O)C1CCN(C(=O)Cn2nc(Cc3nc4cc(OCC(F)F)c(C#N)cc4[nH]3)c3ccccc3c2=O)C1` (centres unmarked) [Compound 221, 6-(2,2-difluoroethoxy)-2-[[3-[2-(3-methylsulfonylpyrrolidin-1-yl)-2-oxo-ethyl]-4-oxo-phthalazin-1-yl]methyl]-3H-benzimidazole-5-carbonitrile], the concentration giving a half-maximal response (EC50) worked out at 127 nM with HFL-1 cells [1], 45.8 nM in assay [2], 387 nM in the assay on HFL-1 cells [3] and 365 nM on S1PR2.

The values are drawn from US20210315893A1 (Galapagos NV, priority 2017, published 2021).
